Source: patent US8779161B2, “Asenapine maleate” (Dr. Reddy's Laboratories Limited, priority 2010, dated 2014)

How the values were obtained:
[1] = Particle size distribution d(10), d(50), d(90); type: physicochemical
Description: For example, particle size distributions of asenapine maleate particles may be measured using microscopy or light scattering equipment, such as, for example, a Malvern Master Size 2000 from Malvern Instruments Limited, Malvern, Worcestershire, United Kingdom. The particle size distributions can be expressed, for example, in terms of d(90), d(50), and d(10) values, where the values (e.g., expressed in μm) are the maximum sizes for 90, 50, and 10 percent of the particles, respectively.
Polymorphs are different solids sharing the same molecular formula, yet having distinct physical properties when compared to other polymorphs of the same formula. As used throughout the disclosure, the D(10), D(50), and D(90) values are useful ways for indicating a particle size distribution. D(90) refers to at least 90 volume percent of the particles having a size smaller than the said value. Likewise, D(10) refers to 10 volume percent of the particles having a size smaller than the said value. D(50) refers to 50 volume percent of the particles having a size smaller than the said value. Methods for determining D(10), D(50), and D(90) include laser diffraction, such as using equipment from Malvern Instruments Ltd. of Malvern, Worcestershire, United Kingdom. HPLC is High Pressure Liquid Chromatography.

[2] = starting with the monoclinic form; WO 2006/106135 A1, Examples 9 and 10 therein; cited from earlier work
[3] = Micronization of asenapine maleate monoclinic form: polymorphic form by PXRD after micronizing; type: physicochemical; conditions: Midas Micronizer 50, nitrogen carrier gas, 4-6 Kg/cm^2; compared with reference pattern of monoclinic polymorph
Description: All PXRD data reported herein are obtained using a Bruker AXS D8 Advance Powder X-ray Diffractometer or a PANalytical X-ray Diffractometer, using copper Kα radiation. Generally, a diffraction angle (2θ) in powder X-ray diffractometry may have permissible variation in the range of ±0.2°. Although the intensities of peaks in the x-ray powder diffraction patterns of different batches of a compound may vary slightly, the peaks and the peak locations are characteristic for a specific polymorphic form. The relative intensities of the PXRD peaks can vary depending on the sample preparation technique, crystal size distribution, various filters used, the sample mounting procedure, and the particular instrument employed. Moreover, instrument variation and other factors can affect the 2-theta values. Therefore, the term “substantially” in the context of PXRD is meant to encompass that peak assignments can vary by plus or minus about 0.2° 2-theta.

[4] = after micronization, Midas Micronizer 50, nitrogen 4-6 Kg/cm^2
[5] = before micronization (as isolated)

With `CN1C[C@H]2c3ccccc3Oc3ccc(Cl)cc3[C@@H]2C1.O=C(O)/C=C\C(=O)O` [Example 11, Asenapine Maleate Monoclinic Form] the “particle size distribution d(10)” value [1, 4] was 0.994 μm, the “particle size distribution d(50)” value [1, 4] was 5.516 μm and the “particle size distribution d(90)” value [1, 4] was 12.715 μm. The “particle size distribution d(10)” value [1, 5] was 5.671 μm, the “particle size distribution d(50)” value [1, 5] was 24.077 μm and the “particle size distribution d(90)” value [1, 5] was 58.716 μm.
For `CN1C[C@H]2c3ccccc3Oc3ccc(Cl)cc3[C@@H]2C1.O=C(O)/C=C\C(=O)O` [Example 26, Asenapine Maleate], the “particle size distribution d(90)” value [1, 5] was 88 μm.
For `CN1C[C@H]2c3ccccc3Oc3ccc(Cl)cc3[C@@H]2C1.O=C(O)/C=C\C(=O)O` [form H, asenapine maleate], the “polymorphic form obtained after micronization” value [2] is given as “Either the monoclinic form, or the orthorhombic form or a mixture of polymorphs was obtained”.
With `CN1C[C@H]2c3ccccc3Oc3ccc(Cl)cc3[C@@H]2C1.O=C(O)/C=C\C(=O)O` [Example 13, Asenapine Maleate] the “PXRD Pattern after Micronizing” value [3] was “complies with reference pattern of monoclinic polymorph”, the “particle size distribution d(10)” value [1, 4] was 0.887 μm and the “particle size distribution d(50)” value [1, 4] was 4.632 μm. The “particle size distribution d(90)” value [1, 4] was 10.678 μm, the “particle size distribution d(10)” value [1, 5] was 6.269 μm and the “particle size distribution d(50)” value [1, 5] was 35.229 μm. For the same compound, the “particle size distribution d(90)” value [1, 5] was 80.698 μm.
In the case of `CN1C[C@H]2c3ccccc3Oc3ccc(Cl)cc3[C@@H]2C1.O=C(O)/C=C\C(=O)O` [Example 15, Asenapine Maleate Monoclinic Form], the “particle size distribution d(10)” value [1, 5] was 4.38 μm, the “particle size distribution d(50)” value [1, 5] was 14.42 μm and the “particle size distribution d(90)” value [1, 5] was 33.11 μm.
